# Patent US4450269A, “Mono-5-substituted-3-chloro-4H-1,2,6-thiadiazin-4-one antifungal agents” (FMC Corporation, priority 1980, dated 1984)
# Where two headings read alike, the source gives them in different places.
# How the values were obtained:
# Format in all cases: cell-based
# Uromyces phaseoli = assay: Spore germination test; conditions: UP, 48 hours
# Procedure, shortened: (§1)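 Compound in acetone was mixed into water agar at final 40, 10, 2.5 and 1 ppm and poured into quadrant dishes. Quadrants received spore suspension, while Erysiphe polygoni and Uromyces phaseoli spores were brushed on from infected leaves. After 48 h at 24 °C, the percentage of germinated spores was converted to a germination rating.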
# Erysiphe polygoni = assay: Spore germination test; conditions: EP, 48 hours
# Procedure, shortened: as §1
# Phytophthora infestans = conditions: PI, 48 hours
compound,measurement,setting,value
"Cc1cc(Oc2nsnc(Cl)c2=O)cc(C)c1Cl [Compound 59, 3-chloro-5-[(4-chloro-3,5-dimethyl)phenoxy]-4H--1,2,6-thiadiazin-4-one]",Spore Germination Rating,Uromyces phaseoli; 1.0 ppm,2 (40-60)
same,Spore Germination Rating,Uromyces phaseoli; 2.5 ppm,2 (40-60)
same,Spore Germination Rating,Uromyces phaseoli; 10 ppm,0 (0-10)
same,Spore Germination Rating,Uromyces phaseoli; 40 ppm,0 (0-10)
same,Spore Germination Rating,Erysiphe polygoni; 1.0 ppm,2 (40-60)
same,Spore Germination Rating,Erysiphe polygoni; 2.5 ppm,1 (10-40)
same,Spore Germination Rating,Erysiphe polygoni; 10 ppm,1 (10-40)
same,Spore Germination Rating,Erysiphe polygoni; 40 ppm,1 (10-40)
same,Spore Germination Rating,Phytophthora infestans; 1.0 ppm,4 (80-100)
same,Spore Germination Rating,Phytophthora infestans; 2.5 ppm,1 (10-40)
same,Spore Germination Rating,Phytophthora infestans; 10 ppm,1 (10-40)
same,Spore Germination Rating,Phytophthora infestans; 40 ppm,0 (0-10)
"Cc1cc(Oc2nsnc(Cl)c2=O)cc(C)c1Br [Compound 60, 3-[(4-bromo-3,5-dimethyl)-phenoxy]-5-chloro-4H--1,2,6-thiadiazin-4-one]",Spore Germination Rating,Uromyces phaseoli; 1.0 ppm,0 (0-10)
same,Spore Germination Rating,Uromyces phaseoli; 2.5 ppm,0 (0-10)
same,Spore Germination Rating,Uromyces phaseoli; 10 ppm,0 (0-10)
same,Spore Germination Rating,Uromyces phaseoli; 40 ppm,0 (0-10)
same,Spore Germination Rating,Erysiphe polygoni; 1.0 ppm,2 (40-60)
same,Spore Germination Rating,Erysiphe polygoni; 2.5 ppm,1 (10-40)
same,Spore Germination Rating,Erysiphe polygoni; 10 ppm,1 (10-40)
same,Spore Germination Rating,Erysiphe polygoni; 40 ppm,0 (0-10)
same,Spore Germination Rating,Phytophthora infestans; 1.0 ppm,4 (80-100)
same,Spore Germination Rating,Phytophthora infestans; 2.5 ppm,2 (40-60)
same,Spore Germination Rating,Phytophthora infestans; 10 ppm,1 (10-40)
same,Spore Germination Rating,Phytophthora infestans; 40 ppm,0 (0-10)
"COc1cc(Oc2nsnc(Cl)c2=O)cc(OC)c1C(C)=O [Compound 61, 3-[(4-acetyl-3,5-dimethoxy)-phenoxy]-5-chloro-4H--1,2,6-thiadiazin-4-one]",Spore Germination Rating,Uromyces phaseoli; 1.0 ppm,2 (40-60)
same,Spore Germination Rating,Uromyces phaseoli; 2.5 ppm,1 (10-40)
same,Spore Germination Rating,Uromyces phaseoli; 10 ppm,2 (40-60)
same,Spore Germination Rating,Uromyces phaseoli; 40 ppm,0 (0-10)
same,Spore Germination Rating,Erysiphe polygoni; 1.0 ppm,1 (10-40)
same,Spore Germination Rating,Erysiphe polygoni; 2.5 ppm,1 (10-40)
same,Spore Germination Rating,Erysiphe polygoni; 10 ppm,1 (10-40)
same,Spore Germination Rating,Erysiphe polygoni; 40 ppm,0 (0-10)
same,Spore Germination Rating,Phytophthora infestans; 1.0 ppm,4 (80-100)
same,Spore Germination Rating,Phytophthora infestans; 2.5 ppm,4 (80-100)
same,Spore Germination Rating,Phytophthora infestans; 10 ppm,3 (60-80)
same,Spore Germination Rating,Phytophthora infestans; 40 ppm,0 (0-10)
